In patent publication US5068340A, “Isothiazolyl substituted glycerol derivatives containing phosphate groups” (priority 1986, dated 1991):
Counter-ions that a name gives are not always drawn.

Tests used:
[1] = test system: PAF-induced hypotension; experiment: Inhibition of PAF-induced hypotension (rat, i.v.); assay type: in vivo, rats of the Wistar-Imamichi strain; conditions: 50% inhibitory dose, intravenous, cumulative doses, 10 ng/kg i.v. 1-C16:0 PAF, Inactin anesthesia, rats, read-out: Inhibition of Hypotension ID50
Description: Inhibition of PAF-induced hypotension
The test animals employed were rats of the Wistar-Imamichi strain, each weighing between 350 and 450 g.
Under Inactin anesthesia (90 mg/kg administered intraperitoneally) the left femoral artery and vein of each test animal were cannulated to enable the arterial blood pressure to be monitored continuously and for drug administration, respectively. At intervals of about 5 minutes, each animal was given by intravenous injection 10 ng/kg of synthetic 1-C16:0 PAF until a steady hypotensive response was achieved. At this time, the drug to be tested was administered by intravenous injection in doses increasing cumulatively by a factor of 3. Within 1 minute of this injection, a further 10 ng/kg of the 1-C16:0 PAF was administered. The hypotensive response to PAF was inhibited by the test drug in a dose-related manner.
The PAF was administered in the form of a solution in physiological saline containing 0.25% w/v bovine serum albumin. The test drugs were dissolved in physiological saline containing either 0.25% w/v BSA or 20% v/v ethanol.
The 50% inhibitory dose (ID50) was calculated from the dose-response curve constructed for the inhibition of PAF-induced hypotension.
This test was carried out using compounds of the invention, as well as the prior art compound CV-3988, disclosed in U.S. Pat. No. 4,408,052 and represented by the foregoing formula (B).

[2] = test system: PAF-induced platelet aggregation; experiment: Inhibition of PAF-induced platelet aggregation in vitro (platelet-rich plasma); assay type: cell-based; conditions: Oryctolagus cuniculus, 5 min, rabbit plasma, platelet count 6×10^5/μl, C16:0 PAF 1×10^-8-3×10^-8 M final
Description: Inhibition of PAF-induced platelet aggregation in vitro
Blood was drawn from a rabbit and immediately mixed with one nineth of its volume of a 3.8% w/v aqueous solution of sodium citrate. A platelet-rich plasma (PRP) was obtained as a supernatant by centrifugation of the blood at 150×g for 15 minutes at room temperature. The precipitated fraction was centrifuged for a further 15 minutes at 1000×g to obtain a platelet-poor plasma (PPP) as a supernatant. Appropriate proportions of this PRP and PPP were mixed to obtain a plasma having a platelet count of 6×10^5 /μl.
Platelet aggregation was determined by the method of Born et al. [G. V. R. Born et al., J. Physiol., 62, 67-68 (1962)] where an increase in light transmission is measured by the aggregometer.
25 μl of a saline solution containing the compound to be tested at an appropriate concentration was added to 250 μl of the above plasma. One minute thereafter. […] The aggregation resulting from the addition of PAF alone, without the prior addition of the test compound was taken as 100%.
The IC50 values (i.e. concentrations to inhibit aggregation by 50%) were calculated from dose-response curves and are shown in Table 6.

Row | IC50 [2] [µM] | Structure (SMILES) | ED50 [1] [mg/kg]
1 | 0.27 | CCCCCCCCCCCCCCCc1cc(OCC(COC(=O)NCCCCC[n+]2ccsc2)Oc2cc(C)on2)no1 (racemic) [Example 25, (2RS)-1-O-(5-Pentadecyl-3-isoxazolyl)-2-O-(5-methyl-3-isoxazolyl)-3-O-{N-(5-thiazoliopentyl)carbamoyl}glycerol bromide] | 0.055
2 | 0.31 | CCCCCCCCCCCCCCCCCNC(=O)OCC(COC(=O)NCCCCC[n+]1ccsc1)Oc1cc(C)on1.[Br-] (racemic) [Example 33, 3-{5-[(2RS)-3-(N-Heptadecylcarbamoyloxy)-2-(5-methyl-3-isoxazolyloxy)propoxycarbonylamino]pentyl}thiazolium bromide] | 0.086
3 | 0.081 | CCCCCCCCCCCCCCCCCNC(=O)OCC(COC(=O)N(Cc1cccc[n+]1CC)C(C)=O)Oc1ccon1 (racemic) [Example 38, 2-{N-Acetyl-N-[(2RS)-3-(N-Heptadecylcarbamoyloxy)-2-(3-isoxazolyloxy)propoxycarbonyl]aminomethyl}-1-ethylpyridinium chloride] | 0.004
4 | 0.35 | CCCCCCCCCCCCCCCCc1cc(OC[C@H](COC(=O)N[C@H](CCCCC[n+]2ccsc2)C(=O)OCC)Oc2ccon2)no1.CS(=O)(=O)[O-] (racemic) [Example 41, 3-{(6RS)-6-Ethoxycarbonyl-6-[(2RS)-3-(5-hexadecyl-3-isoxazolyloxy)-2-(3-isoxazolyloxy)propoxy]carbonylaminohexyl}thiazolium methanesulfonate] | 0.054

The next lines start with the compound.

Row | Structure (SMILES) | IC50 [2] [µM] | ED50 [1] [mg/kg]
5 | CCCCCCCCCCCCCCCCCNC(=O)OCC(COP(=O)([O-])OCC[n+]1ccsc1)Oc1ccon1 (racemic) [Example 13, (2RS)-3-(N-Heptadecylcarbamoyloxy)-2-(3-isoxazolyloxy)propyl 2-thiazolioethyl phosphate (inner salt)] | 3.4 | 0.096
6 | CCCCCCCCCCCCCCCCCNC(=O)OCC(COP(=O)([O-])OCC[n+]1ccsc1)Oc1cc(C)on1 (racemic) [Example 18, (2RS)-3-(N-Heptadecylcarbamoyloxy)-2-(5-methyl-3-isoxazolyloxy)propyl 2-thiazolioethyl phosphate (inner salt)] | 4.8 | 0.081
7 | CCCCCCCCCCCCCCCc1cc(OCC(COP(=O)([O-])OCCCCCC[n+]2ccsc2)Oc2cc(C)on2)no1 (racemic) [Example 23, (2RS)-3-(5-Pentadecyl-3-isoxazolyloxy)-2-(5-methyl-3-isoxazolyloxy)propyl 6-thiazoliohexyl phosphate (inner salt)] | 1.4 | 0.067
8 | CCCCCCCCCCCCCCCc1cc(OCC(COCCCCCCC[n+]2ccsc2)Oc2cc(C)on2)no1 (racemic) [Example 24, (2RS)-1-O-(5-Pentadecyl-3-isoxazolyl)-2-O-(5-methyl-3-isoxazolyl)-3-(7-thiazolioheptyl)glycerol methanesulfonate] | 0.31 | 0.03
9 | CCCCCCCCCCCCCCCCCCNC(=O)OCC(COP(=O)([O-])OCC[n+]1ccsc1)OC (stereo not drawn) [CV-3988, reference compound] | 9.8 | 0.415
